The results in this text go back to patent publication US11612606B2, “8-aminoisoquinoline compounds and uses thereof” (priority 2018, dated 2023).

This experiment concerns the target HPK full length, T165E S171E (Homo sapiens (Human), UniProt Q92918, S171E/T165E). Kind of experiment: HPK1-FL HTRF enzymatic assay ("HTRF"). The experiment is classed as biochemical. Conditions: ATP 1 mM. The method in brief:
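Full-length HPK1 (T165E/S171E) was preincubated 30 min with compound, then reacted 60 min with biotin-SLP-76 and 1 mM ATP. Phospho-SLP-76 was detected by HTRF (Eu-anti-pSLP76 antibody, SA-XL665) after a further 60 min.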
A general note: Time-resolved FRET reads energy transfer from a long-lived donor to a nearby acceptor.

Counter-ions that a name gives are not always drawn. Like-named read-outs stand apart in the source and are kept apart here.

HPK full length, T165E S171E, sequence (Q92918 whole entry T165E/S171E, looked up): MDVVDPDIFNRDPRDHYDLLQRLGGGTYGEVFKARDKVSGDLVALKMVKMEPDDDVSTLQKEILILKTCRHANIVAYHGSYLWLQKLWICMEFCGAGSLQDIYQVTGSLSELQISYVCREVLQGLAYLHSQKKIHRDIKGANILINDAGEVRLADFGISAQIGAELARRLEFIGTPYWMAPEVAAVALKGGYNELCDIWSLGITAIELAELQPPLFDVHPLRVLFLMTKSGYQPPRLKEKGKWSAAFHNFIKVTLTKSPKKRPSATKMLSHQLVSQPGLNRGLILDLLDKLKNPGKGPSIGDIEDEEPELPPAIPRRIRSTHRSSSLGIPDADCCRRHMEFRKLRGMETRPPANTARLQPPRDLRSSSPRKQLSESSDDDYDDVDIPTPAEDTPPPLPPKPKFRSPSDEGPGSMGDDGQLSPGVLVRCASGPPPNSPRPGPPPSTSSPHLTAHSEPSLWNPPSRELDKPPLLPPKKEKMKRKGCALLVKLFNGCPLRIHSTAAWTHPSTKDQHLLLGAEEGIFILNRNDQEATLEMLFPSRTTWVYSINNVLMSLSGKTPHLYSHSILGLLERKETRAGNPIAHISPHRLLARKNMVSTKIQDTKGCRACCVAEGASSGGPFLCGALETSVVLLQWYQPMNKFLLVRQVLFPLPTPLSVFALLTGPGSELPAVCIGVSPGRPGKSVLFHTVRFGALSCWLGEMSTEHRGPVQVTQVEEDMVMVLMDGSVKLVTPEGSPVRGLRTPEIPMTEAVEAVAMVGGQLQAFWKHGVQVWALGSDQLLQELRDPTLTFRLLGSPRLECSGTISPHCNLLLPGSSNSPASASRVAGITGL

Consider `Cc1c(-c2cc3cc(NC(=O)O[C@H]4[C@@H]5CN(C6COC6)C[C@@H]54)ncc3c(N)c2F)cnc2c1NCCO2` [Compound 502a, (1R,5S,6s)-3-(Oxetan-3-yl)-3-azabicyclo[3.1.0]hexan-6-yl (8-amino-7-fluoro-6-(8-methyl-2,3-dihydro-1H-pyrido[2,3-b][1,4]oxazin-7-yl)isoquinolin-3-yl)carbamate], for which the Ki (read-out: HPK1 Ki) was < 0.013 nM.
As for `Cc1c(N)cncc1-c1cc2cc(NC(=O)O[C@H]3COC[C@@H]3C)ncc2c(N)c1F` (single isomer, unassigned) [Compound 544a], the Ki (read-out: HPK1 Ki) was determined as 0.138 nM.
Same read-out and setting: next, `CNC(=O)Nc1cc2cc(-c3cnc4c(c3C)NCCO4)c(F)c(N)c2cn1` [Compound 704, 1-(8-Amino-7-fluoro-6-(8-methyl-2,3-dihydro-1H-pyrido[2,3-b][1,4]oxazin-7-yl)isoquinolin-3-yl)-3-methylurea]: < 0.013 nM.
`Cc1c(-c2cc3cc(NC(=O)O[C@H]4C[C@@H](O)C4)ncc3c(N)c2F)cnc2c1NC[C@H]1C[C@@H]21` (single isomer, unassigned) [Compound 584b]: under “read-out: HPK1 Ki”, the Ki was found to be 2.1 nM.
`Cc1c(-c2cc3cc(NC(=O)OC4CC5(CCN(C)CC5)C4)ncc3c(N)c2F)cnc2c1NCCO2` [Compound 427, 7-Methyl-7-azaspiro[3.5]nonan-2-yl (8-amino-7-fluoro-6-(8-methyl-2,3-dihydro-1H-pyrido[2,3-b][1,4]oxazin-7-yl)isoquinolin-3-yl)carbamate]: the Ki (read-out: HPK1 Ki) is < 0.013 nM.
In the case of `Cc1c(-c2cc3cc(NC(=O)OC4CC5(C4)CN(C)C5)ncc3c(N)c2F)cnc2c1NCCC2` [Compound 425, 2-Methyl-2-azaspiro[3.3]heptan-6-yl (8-amino-7-fluoro-6-(4-methyl-5,6,7,8-tetrahydro-1,5-naphthyridin-3-yl)isoquinolin-3-yl)carbamate], the inhibition constant Ki (read-out: HPK1 Ki) was < 0.013 nM.
Same read-out and setting: with `Cc1c(-c2cc3cc(NC(=O)OC4CC(O)C4)ncc3c(N)c2F)cnc2c1NC[C@@H](C)C2` (single isomer, unassigned) [Compound 560a] the figure was 0.019 nM.
Same read-out and setting: next, `Cc1c(-c2cc3cc(NC(=O)O[C@H]4C[C@@H](C(C)(C)C#N)C4)ncc3c(N)c2F)cnc2c1NCCO2` [Compound 549a, (1s,3s)-3-(2-Cyanopropan-2-yl)cyclobutyl (8-amino-7-fluoro-6-(8-methyl-2,3-dihydro-1H-pyrido[2,3-b][1,4]oxazin-7-yl)isoquinolin-3-yl)carbamate]: < 0.013 nM; `Cc1c(-c2cc3cc(NC(=O)O[C@H]4COC[C@H]4F)ncc3c(N)c2F)cnc2c1NCCO2` [Compound 477c, (3S,4R)-4-Fluorotetrahydrofuran-3-yl (8-amino-7-fluoro-6-(8-methyl-2,3-dihydro-1H-pyrido[2,3-b][1,4]oxazin-7-yl)isoquinolin-3-yl)carbamate]: 0.15 nM; `Cc1c(-c2cc3cc(NC(=O)O[C@@H]4CC[C@](C)(O)C4)ncc3c(N)c2F)cnc2c1NCCO2` (single isomer, unassigned) [Compound 533d, hydrochloride]: 0.015 nM.
Same read-out and setting: next, `Cc1c(-c2cc3cc(NC(=O)OC4CC5(C4)CN(CC(F)F)C5)ncc3c(N)c2F)cnc2c1NCCO2` [Compound 494, 2-(2,2-Difluoroethyl)-2-azaspiro[3.3]heptan-6-yl (8-amino-7-fluoro-6-(8-methyl-2,3-dihydro-1H-pyrido[2,3-b][1,4]oxazin-7-yl)isoquinolin-3-yl)carbamate]: < 0.013 nM.
Consider `Cc1c(-c2cc3cc(NC(=O)O[C@@H]4COC[C@@H]4C)ncc3c(N)c2F)cnc2c1NCCO2` (single isomer, unassigned) [Compound 441d], for which, under “read-out: HPK1 Ki”, the inhibition constant Ki was determined as 0.32 nM.
Still for that read-out and setting: next, `Cc1c(-c2cc3cc(NC(=O)OC4CN(C(=O)[C@H]5C[C@@H]5F)C4)ncc3c(N)c2F)cnc2c1NCCC2` (single isomer, unassigned) [Compound 531a]: 0.055 nM; `Cc1c(-c2cc3cc(NC(=O)O[C@@H]4CN(C)C[C@@H]4F)ncc3c(N)c2F)cnc2c1NCCO2` (single isomer, unassigned) [Compound 452d]: < 0.013 nM.
Take `CNc1cncc(-c2cc3cc(NC(=O)O[C@H]4C[C@@](C)(O)C4)ncc3c(N)c2F)c1C` [Compound 527b, (1s,3s)-3-Hydroxy-3-methylcyclobutyl (8-amino-7-fluoro-6-(4-methyl-5-(methylamino)pyridin-3-yl)isoquinolin-3-yl)carbamate]: the Ki (read-out: HPK1 Ki) was found to be 0.216 nM.
The same measure, in the same setting: next, `CC(=O)N1CC[C@H](NC(=O)Nc2cc3cc(-c4cnc5c(c4C)NCCO5)c(F)c(N)c3cn2)[C@H](F)C1` (single isomer, unassigned) [Compound 710a, (±)-1-((cis)-1-Acetyl-3-fluoropiperidin-4-yl)-3-(8-amino-7-fluoro-6-(8-methyl-2,3-dihydro-1H-pyrido[2,3-b][1,4]oxazin-7-yl)isoquinolin-3-yl)urea]: < 0.013 nM.
In the case of `Cc1c(-c2cc3cc(NC(=O)O[C@H]4CCOC4)ncc3c(N)c2F)cnc2c1NCCO2` [Compound 403b, (S)-Tetrahydrofuran-3-yl (8-amino-7-fluoro-6-(8-methyl-2,3-dihydro-1H-pyrido[2,3-b][1,4]oxazin-7-yl)isoquinolin-3-yl)carbamate], the Ki (HPK1 Ki) came out at 0.064 nM.
For `Cc1c(-c2cc3cc(NC(=O)O[C@@H]4CCN([C@@H]5CCOC5)C[C@@H]4F)ncc3c(N)c2F)cnc2c1NCCO2` [Compound 569b, (3S,4R)-3-fluoro-1-((R)-tetrahydrofuran-3-yl)piperidin-4-yl (8-amino-7-fluoro-6-(8-methyl-2,3-dihydro-1H-pyrido[2,3-b][1,4]oxazin-7-yl)isoquinolin-3-yl)carbamate], where the note is “read-out: HPK1 Ki”, the Ki came to 0.254 nM.
Same read-out and setting: next, `Cc1c(-c2cc3cc(NC(=O)OC[C@]4(F)CCN(C)C4)ncc3c(N)c2F)cnc2c1NCCO2` (single isomer, unassigned) [Compound 451b]: < 0.013 nM; `Cc1c(-c2cc3cc(NC(=O)OC4CN(S(C)(=O)=O)C4)ncc3c(N)c2F)cnc2c1NCCO2` [Compound 552, 1-(Methylsulfonyl)azetidin-3-yl (8-amino-7-fluoro-6-(8-methyl-2,3-dihydro-1H-pyrido[2,3-b][1,4]oxazin-7-yl)isoquinolin-3-yl)carbamate]: 0.014 nM; `CCc1c(-c2cc3cc(NC(=O)O[C@H]4COC[C@@H]4C)ncc3c(N)c2F)cnc2c1NCCO2` (single isomer, unassigned) [Compound 555a, hydrochloride]: < 0.013 nM.
As to `Cc1c(-c2cc3cc(NC(=O)O[C@@H]4CC[C@H]4O)ncc3c(N)c2F)cnc2c1NCCO2` [Compound 542d, (1R,2R)-2-Hydroxycyclobutyl (8-amino-7-fluoro-6-(8-methyl-2,3-dihydro-1H-pyrido[2,3-b][1,4]oxazin-7-yl)isoquinolin-3-yl)carbamate hydrochloride], the affinity (HPK1 Ki) corresponds to a Ki of 0.014 nM.
Take `Cc1c(-c2cc3cc(NC(=O)N[C@H]4C[C@H]4C)ncc3c(N)c2F)cnc2c1NCCO2` (single isomer, unassigned) [Compound 736a]: the Ki (read-out: HPK1 Ki) was < 0.013 nM.
Consider `Cc1c(-c2cc3cc(NC(=O)O[C@H]4C[C@@H](N5CCOCC5)C4)ncc3c(N)c2F)cnc2c1NCCO2` [Compound 550b, (1s,3s)-3-Morpholinocyclobutyl (8-amino-7-fluoro-6-(8-methyl-2,3-dihydro-1H-pyrido[2,3-b][1,4]oxazin-7-yl)isoquinolin-3-yl)carbamate], for which, under “HPK1 Ki”, the affinity, expressed as Ki, was 0.054 nM.

As a reminder, the Ki is a measure of affinity in units of concentration, obtained from inhibition or displacement.
